Common to all, as to assay: DTP human tumour cell line panel, 48 h
In assay [1] the test system is RPMI-8226 leukemia.
The subject of assay [2] is OVCAR-4 ovarian.
Assay [3] has as its system SK-MEL-2 melanoma.
In assay [4] the test system is SNB-75 CNS.
Assay [5] concerns KM12 colon.
The test system of assay [6] is SR leukemia.
Assay [7] concerns SW-620 colon.
Assay [8] concerns UACC-257 melanoma.
For assay [9], the system named is CCRF-CEM leukemia.
The subject of assay [10] is MALME-3M melanoma.

This note sets out measurements from PubChem BioAssay (NCI).

For orientation: TGI means the concentration giving total growth inhibition.

The structures appear in SMILES notation.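 96-well plates; 48 h exposure; 5 concentrations. Endpoints by linear interpolation between flanking doses. Not reached: highest tested concentration assigned. TGI marks complete inhibition of growth.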 Peptide text beside a SMILES is read from it. * marks the point of attachment. Boc = CC(C)(C)OC(=O)*

With `C=C(CCC(C(=O)O)C1CCC2(C)C3=C(CCC12C)C1(C)CCC(O)C(C)(C)C1CC3)C(C)C` (centres undefined), the TGI in assay [1] was 79.7 µM; in assay [2], greater than 100 µM; in assay [3], greater than 100 µM; in assay [4], greater than 100 µM; in assay [5] it was 22.6 µM; in assay [6], 27.2 µM. The concentration for total growth inhibition (TGI) in [7] and in [8] was greater than 100 µM throughout.
Consider `Clc1ncc(C(Cl)(Cl)Cl)nc1-c1ccccc1`, for which the TGI was 17 µM in assay [2]; 5.04 µM in [3]; 6.24 µM in assay [4]; 3.43 µM in assay [5]; 10.9 µM in assay [6]; greater than 100 µM in assay [7]. The total growth inhibition concentration (TGI) in assay [8] is 4.76 µM; in [9] it was greater than 100 µM; in assay [10] it was 19.1 µM.
On to `Cn1c(=O)c2[nH]c(N/N=C3/SCC(=O)N3Cc3ccccc3)nc2n(C)c1=O`, for which the total growth inhibition concentration (TGI) in [1] is greater than 100 µM; in assay [2], greater than 100 µM; in [3], greater than 100 µM; in assay [5], greater than 100 µM; in [6], 82.3 µM; in assay [8], greater than 100 µM. Moreover, the TGI in [9] is 62.9 µM; in assay [10], greater than 100 µM.
As to `COc1cc(/C=C2\C[C@H]3[C@@H]4CC=C5C[C@@H](N6CCCC6)CC[C@]5(C)[C@H]4CC[C@]3(C)[C@H]2OC(C)=O)cc(OC)c1OC`, the TGI in [1] came to 29.6 µM; in assay [2], 34.8 µM; in [3], 31.6 µM; in [4] it was 29.4 µM; in [5], 31.2 µM; in [7] it was 34.7 µM. The results for the TGI in [8], in [9] and in [10] were 33.8 µM, greater than 100 µM and 38.1 µM, respectively.
In the case of `CN(C)CCNC(=O)c1cccc2c(NC(CS)C(=O)O)c3ccccc3nc12` (centres undefined), the concentration for total growth inhibition (TGI) is greater than 100 µM in assay [2]; 27.7 µM in assay [3]; 38.5 µM in assay [4]; greater than 100 µM in assay [5]; greater than 100 µM in assay [6]; greater than 100 µM in [7]. The TGI in assay [8] is greater than 100 µM; in assay [9] it was greater than 100 µM; in assay [10], 11.3 µM.
For `COc1ccc(S(=O)(=O)Nc2ccc(-c3csc(N4C(=O)/C(=C/C=C\c5ccccc5)N=C4c4ccccc4)n3)cc2)cc1Cl`, the TGI in assay [2] is 88.9 µM; in assay [3], 56.3 µM; in [4], greater than 100 µM; in assay [5], 97.1 µM; in assay [6] it was greater than 100 µM; in assay [7], greater than 100 µM. Further, the TGI in assay [8] was greater than 100 µM; in [9], greater than 100 µM; in assay [10], 63.1 µM.
For the compound `COc1cc2c(cc1OC)C1Cc3ccccc3CN1CCC2` (centres undefined), the TGI in [2], in assay [3], in [4], in assay [5], in [6] and in [7] was greater than 100 µM throughout. Also, the TGI in assay [8], in assay [9] and in [10] was greater than 100 µM each time.
As to `C=C1C(=O)O[C@H]2C(=O)[C@H](C)CCC[C@@](C)(O)/C=C\C[C@@]3(C)O[C@@H]3C[C@@H]12`, the TGI in assay [1] was determined as 33.7 µM; in assay [3] it was 41.5 µM; in [5] it was 39.3 µM; in assay [7] it was 22.1 µM; in assay [8], 31 µM; in [9], 12.3 µM.
Turning to `CSc1nc(Br)nc2c1ncn2C1CC(Oc2ccc(C)cc2)C(COc2ccc(C)cc2)O1` (centres undefined), the TGI is greater than 100 µM in [1]; greater than 100 µM in assay [2]; greater than 100 µM in assay [3]; 94.6 µM in assay [4]; greater than 100 µM in assay [5]; greater than 100 µM in [7]. In addition, the TGI in assay [8], in assay [9] and in assay [10] was greater than 100 µM throughout.
With `O=C1N2CCc3c([nH]c4ccccc34)C23CC2CCCC12S3` (centres undefined), the TGI in assay [1], in assay [2], in assay [3], in [5], in [6] and in assay [7] was greater than 50 µM in each case. Moreover, the concentration for total growth inhibition (TGI) in [8] is 47.5 µM; in [10] it was greater than 50 µM.
`COc1cc([C@@H]2c3cc4c(cc3[C@@H](Nc3ccc(Cl)cc3C(=O)c3ccccc3Cl)[C@H]3COC(=O)[C@H]23)OCO4)cc(OC)c1OC`: the TGI in [2] was greater than 100 µM; in assay [3] it was greater than 100 µM; in assay [4], greater than 100 µM; in assay [5], 0.289 µM; in assay [6] it was 0.425 µM; in [7], greater than 46.1 µM. Further, the TGI in assay [8] and in assay [10] was greater than 100 µM each time.
On to `CC(C)CC1c2[nH]c3ccccc3c2C[C@H]2C(=O)NC(COC(C)(C)C)C(=O)N12` (some centres undefined), for which the TGI in [1] is 58 µM; in assay [2] it was greater than 100 µM; in [3] it was 38.8 µM; in [5], 80.2 µM; in [6], 46.2 µM; in assay [7], greater than 100 µM. In addition, the TGI stood at 39.3 µM in assay [8] and 48.2 µM in assay [10].
For the compound `CSCCC(NC(=O)C(CC(C)C)NC(=O)CNC(=O)OC(C)(C)C)C(=O)N(C)C` (stereo not drawn) (Boc-Gly-Leu-Met-NMe2; configuration not given here), the TGI in assay [2], in [3], in assay [5], in assay [6], in assay [7] and in [8] was greater than 100 µM in each case. Moreover, the TGI in [9] and in assay [10] was greater than 100 µM throughout.
As to `O=C(Nc1ccccc1)N1N=C(c2ccccc2)C1c1ccccc1` (centres undefined), the TGI in assay [1] was 30.6 µM; in assay [2] it was greater than 100 µM; in [4], 32 µM; in [5], greater than 100 µM; in assay [7] it was greater than 100 µM; in assay [8], greater than 100 µM. This compound also yielded a TGI in [10] of 64.2 µM.
Take `CCOC(=O)Cc1nc2c(=O)[nH]cnc2n1C1OC(COC(C)=O)C(OC(C)=O)C1OC(C)=O` (centres undefined): the TGI in assay [1], in assay [2], in [3], in assay [4], in assay [5] and in [7] was greater than 100 µM throughout. Further, the TGI in assay [8], in assay [9] and in assay [10] was greater than 100 µM each time.
